# Positions count from the first letter of the chain named. “And” between values parts separate entries of the source, which are not always exact repeats. Equal values may be shown once. “Also recorded” adds a separate entry of the source.
# How the values were obtained:
# [1] = tested on: cultured cells; conditions: SiaLev or SiaNAz as downstream product; cited from earlier work
# [2] = tested on: GNE-deficient mouse embryonic stem cells; conditions: growth medium supplemented with ManNAc; cited from earlier work
# [3] = tested on: GNE-M712T knock-in mice; assay: Rescue of GNE-M712T knock-in mice by ManNAc feeding (survival of homozygous pups); format: in vivo, mouse
# Procedure: GNE-M712T mice. GNE-M712T knock-in mice were generated by targeting the M712T (ATG>ACG) mutation exon 12 of the murine GNE gene (Uae1, Gne, GenBank NM_015828). The mutant mice were maintained in the C57BL/6J background. Animals were housed in ventilated cages in a temperature- and light-controlled environment (22° C., 30-70% humidity, 12-hour light/12-hour dark cycle) and were fed irradiated chow (Prolab 5P75 Isopro 3000; PMI Nutrition International) and water ad libitum. All euthanasia was performed with by CO2 followed by cervical dislocations. For Mendelian distribution studies, four pregnant mice E17-19 were euthanized and embryos were retrieved by cesarean section and euthanized by decapitation. All mouse procedures were performed in accordance with protocol G04-3 approved by the Institutional Animal […] and Use Committee of the National Human Genome Research Institute, National Institutes of Health Institutional Review Board.
# (§1) ManNAc administration. Breeding pairs of 6-week-old +/− mice were divided into three groups. Group I consisted of 9 +/− breeding pairs who were administered untreated sterilized tap water. Group II consisted of one breeding pair of +/+ mice (wild-type control) and 6 +/− breeding pairs who were administered 1 mg/ml ManNAc (Sigma) supplemented water. Group III consisted of one +/+ breeding pair and 7 +/− breeding pairs who were administered 5 mg/ml ManNAc supplemented water. Water was changed twice weekly. Nursing females continued to be supplied with ManNAc. All mice were weaned from ManNAc at 21 days. Selected whole litters were sacrificed at age P2 or P6 for histological, genetic, biochemical or ultrastructural analysis.
# Statistical analysis. Differences in genotype distribution (+/+: +/−-−/−) between an untreated control group and ManNAc treated group were tested by a two-tailed Fisher's exact test. To this end a 2×3 table was generated.
# [4] = tested on: GNE-M712T knock-in mice; assay: Tissue histology and electron microscopy of ManNAc treated -/- mice at P6; format: in vivo, mouse; conditions: age P6
# Procedure: Mouse Histology. Mouse tissues were collected, formalin-fixed and paraffin-embedded. Tissue sections (5 μm) were prepared and stained with hematoxylin and eosin following standard procedures (American Histolabs) or subjected to immunohostochemistry with a variety of primary antibodies. Formalin fixed tissues were deparafinized in Histoclear II (National Diagnostics), […] in a series of ethanol solutions. Antigen retrieval was performed for sections to be stained with the antibodies GNE/MNK (5 min boiling in citric acid based solution; Vector Laboratories) and dystrophin (boiling in 1 mM EDTA, according the manufacturer's protocol; AbCam). The sections were blocked (2% BSA, 10% donkey serum and 0.1% Triton X-100 in PBS) and incubated with primary antibodies (GNE/MNK 1:50; laminin 1:25; dystrophin 1:50) overnight at 4° C., followed by the secondary antibody Alexa 488 donkey-anti-rabbit (1:500 in blocking solution) (Invitrogen). The sections were mounted in Vectashield (Vector Laboratories) and viewed and digitally imaged with a Zeiss Axiovert 200M microscope (Carl Zeiss, Microimaging).
# Electron Microscopy. […] The grids were viewed with a Philips 410 electron microscope (FEI Company) at 80 kV and images were recorded on Kodak SO-163 film (Kodak). […]
# [5] = target: T1, UDP-GlcNAC 2-epimerase (GNE) (Mus musculus, UniProt Q91WG8); assay: GNE/MNK epimerase enzymatic assay on tissue after ManNAc feeding; format: in vivo; conditions: +/+ mice, skeletal muscle, age P2, ManNAc treatment, n=3
# T1 construct: Mouse kidney and skeletal muscle (hindlimb quadriceps) tissues were homogenized; from tissue; host or cells: skeletal muscle and kidney of GNE-M712T knock-in mice (C57BL/6J), age P2
# T1 sequence (Q91WG8 1-722): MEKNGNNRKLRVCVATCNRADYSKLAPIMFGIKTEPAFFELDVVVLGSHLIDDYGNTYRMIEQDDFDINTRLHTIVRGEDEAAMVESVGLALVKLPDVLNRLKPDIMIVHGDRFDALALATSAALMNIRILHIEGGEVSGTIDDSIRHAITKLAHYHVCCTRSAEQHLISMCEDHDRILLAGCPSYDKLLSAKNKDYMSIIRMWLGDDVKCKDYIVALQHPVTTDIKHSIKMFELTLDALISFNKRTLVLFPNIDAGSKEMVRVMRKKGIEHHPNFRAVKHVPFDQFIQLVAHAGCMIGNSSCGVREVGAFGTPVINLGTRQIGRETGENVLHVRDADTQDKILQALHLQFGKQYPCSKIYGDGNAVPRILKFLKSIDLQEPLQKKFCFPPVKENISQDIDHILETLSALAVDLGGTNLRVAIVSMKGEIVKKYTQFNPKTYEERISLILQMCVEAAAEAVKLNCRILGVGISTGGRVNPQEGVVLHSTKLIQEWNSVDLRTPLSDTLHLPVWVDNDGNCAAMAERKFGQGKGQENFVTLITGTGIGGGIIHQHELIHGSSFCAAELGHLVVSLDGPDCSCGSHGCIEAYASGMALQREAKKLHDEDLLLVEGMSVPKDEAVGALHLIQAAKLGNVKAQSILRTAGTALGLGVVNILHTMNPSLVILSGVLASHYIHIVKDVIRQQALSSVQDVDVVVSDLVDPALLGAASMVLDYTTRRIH
# Procedure: as §1
# (§2) GNE/MNK enzymatic assays. Mouse kidney and skeletal muscle (hindlimb quadriceps) tissues were homogenized and subjected to the GNE/MNK epimerase enzymatic assay as described^11,44. This assay is based on incubation with radiolabeled substrate (UDP-[^3H]GlcNAc; American Radiolabeled Chemicals), and detection of radiolabeled product ([^3H]ManNAc) upon separation of oligosaccharides by high pH anion-exchange chromatography with pulsed amperometric detection (Dionex).
# [6] = target: T2, UDP-GlcNAC 2-epimerase (GNE) (Mus musculus, UniProt Q91WG8, M712T); assay: as above; format: in vivo; conditions: -/- mice, skeletal muscle, age P2, ManNAc treatment, n=7; untreated -/- 19%
# T2 construct: Mouse kidney and skeletal muscle (hindlimb quadriceps) tissues were homogenized; from tissue; host or cells: skeletal muscle and kidney of GNE-M712T knock-in mice (C57BL/6J), age P2
# T2 sequence (Q91WG8 1-722 M712T): T1 sequence (Q91WG8 1-722) with M712T
# Procedure: as §1, §2
# [7] = tested on: PSA-NCAM; assay: Immunoblot with PSA-NCAM antibodies of brain tissue after ManNAc feeding; format: in vivo, mouse; conditions: n=14 pre treatment, n=10 post treatment, p=0.08
# Text: (§3) Antibodies. A rabbit polyclonal antibody was custom prepared against a GNE/MNK peptide comprising amino acids 588-607: […] (SEQ ID NO:24), coupled to keyhole limpet hemocyanine (KLH) and affinity-purified against the corresponding antigenic peptide (Covance). Other primary antibodies were commercially obtained: dystrophin (ab15277, AbCam), α-dystroglycan (IIH6, Upstate Biotechnology), laminin (L9393, Sigma-Aldrich), podocalyxin (PODX15-A, Alpha Diagnostic International), PSA-NCAM (MAB5324, Chemicon), and β-actin (AAN01, Cytoskeleton).
# (§4) Western blotting. Mouse tissues (age P2) were extracted, homogenized in CelLytic buffer, consisting of a mild detergent, bicine buffer and 150 mM NaC (CelLytic) supplemented with protease inhibitors (Complete Minia, Roche). The lysates were sonicated and cleared by centrifugation (1000 g for 10 min), and the resulting supernatants were assayed for protein concentration (BCA protein assay, Pierce). For the neuraminidase enzymatic treatments, protein homogenates (25 μg) were incubated with 1 mU/μg of Neuraminidase (N-6514, Sigma) for 30 min at 37° C. Equal amounts of protein (25-50 μg) were electrophoresed on 4-12% Tris-Glycine gels (Novex, Invitrogen), and electroblotted onto 0.45 μm Hybond ECL nitrocellulose membranes (Amersham Pharmacia Biotech). […]
# [8] = tested on: podocalyxin; assay: Immunoblot of podocalyxin sialylation in kidney extracts after ManNAc feeding; format: in vivo, mouse; conditions: -/- kidneys
# Text: as §3, §4
# [9] = target: T3, GNE/MNK protein (Mus musculus, UniProt Q91WG8, M712T); assay: Immunoblot with anti-GNE/MNK antibodies of muscle and kidney extracts after ManNAc feeding; format: in vivo; conditions: ManNAc treated, referenced to β-actin, untreated -/- 78% decreased
# T3 construct: Mouse kidney and skeletal muscle (hindlimb quadriceps) tissues were homogenized; from tissue; host or cells: skeletal muscle and kidney of GNE-M712T knock-in mice (C57BL/6J), age P2
# T3 sequence (Q91WG8 1-722 M712T): T1 sequence (Q91WG8 1-722) with M712T
# Text: as §3, §4
# [10] = ManNAc 1 g/kg/day to +/- breeding pairs
Structure (SMILES),incorporation of sialic acid analogs into cell surface glycoconjugates [1],sialylation of hyposialylated cells [2],"surviving homozygous mice beyond age P3 ([3]; 1 mg/ml ManNAc in drinking water during matings of +/- mice, 51 offspring)","homozygous pups surviving beyond P3, % of total -/- pups ([3]; 5 mg ManNAc/ml in drinking water)","number of homozygous pups that survived beyond P3 ([3]; 5 mg ManNAc/ml in drinking water, out of 97 newborn pups)","homozygous mice that survived past P21 ([3]; 5 mg ManNAc/ml in drinking water, supplementation ceased at P21)","-/- offspring that survived past P3 [3, 10]","survivors past P3 that lived past weaning age P21 [3, 10]",effect on survival of homozygous pups ([3]; administration of ManNAc to pregnant mothers),"abnormalities in liver, heart and skeletal muscle tissues [4]",kidney histology [4],"GNE activity in +/+ muscle, relative to untreated +/+ set at 100% [5]","residual GNE activity in -/- muscle, relative to untreated +/+ set at 100% [6]",increased PSA-NCAM signal compared to untreated -/- tissues [7],podocalyxin sialylation status [8],decreased amount of GNE/MNK protein compared to +/+ littermates [9]
"CC(=O)CCC(=O)N[C@@H]1C(O)O[C@H](CO)[C@@H](O)[C@@H]1O (some centres unmarked) [ManLev, N-levulinoylmannosamine]",resulted in incorporation of the downstream sialic acid analogs,–,–,–,–,–,–,–,–,–,–,–,–,–,–,–
"CC(=O)N[C@@H]1C(O)O[C@H](CO)[C@@H](O)[C@@H]1O (some centres unmarked) [ManNAc, N-acetylmannosamine]",–,became resialylated,did not yield any surviving homozygous mice beyond age P3,44%,11,Two,42%,18%,remarkably salutary effect on survival of homozygous pups,No abnormalities,mildly to remarkably improved histological features; also recorded: mildly to significantly improved kidney histology,114 (±10) % and ~114%,31 (±9) % and 31%,2-28%,did not result in a statistically significant increase,41 (±3) %
"[N-]=[N+]=NCC(=O)N[C@@H]1C(O)O[C@H](CO)[C@@H](O)[C@@H]1O (some centres unmarked) [ManNAz, N-azidoacetylmannosamine]",resulted in incorporation of the downstream sialic acid analogs,–,–,–,–,–,–,–,–,–,–,–,–,–,–,–
